Assay results reported in PubChem BioAssay (NCI).
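Cultured in 96-well plates, cells were exposed to test compound for 48 hours across five concentrations. GI50 marks 50% less growth. Definition used: TGI = concentration required for complete inhibition of growth.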

What was measured:
Test in all cases: NCI tumour cell line growth inhibition, 48 h
[1] = test system: SK-MEL-28 melanoma
[2] = test system: HCT-116 colon
[3] = test system: HCT-15 colon
[4] = test system: HOP-62 NSCLC
[5] = test system: SK-MEL-5 melanoma
[6] = test system: UACC-62 melanoma
[7] = test system: EKVX NSCLC
[8] = test system: RXF 393 renal
[9] = test system: HL-60(TB) leukemia
[10] = test system: RPMI-8226 leukemia

N#C/C(=C1\SC(N=Nc2ccccc2)C(=O)N1c1ccccc1)c1nc2ccccc2[nH]1 (centres undefined)
TGI [1]: > 100 µM | TGI [2]: > 100 µM | TGI [3]: > 100 µM | TGI [4]: 73.6 µM | TGI [5]: > 100 µM | TGI [6]: > 100 µM | TGI [7]: > 100 µM | TGI [8]: 97.6 µM | TGI [9]: > 100 µM

COc1cc(-c2nc(-c3nc4ccccc4[nH]3)cc3c2[nH]c2ccccc23)cc(OC)c1OC
GI50 [10]: 2.15 µM | TGI [10]: 8.61 µM | GI50 [1]: 6.89 µM | TGI [1]: > 100 µM | GI50 [2]: 3.95 µM | TGI [2]: > 100 µM | GI50 [3]: 4.14 µM | TGI [3]: > 100 µM | GI50 [4]: 5.87 µM | TGI [4]: > 100 µM | GI50 [5]: 2.99 µM | TGI [5]: > 100 µM | GI50 [6]: 3.38 µM | TGI [6]: > 100 µM | GI50 [8]: 3.25 µM | TGI [8]: > 100 µM | GI50 [9]: 4.37 µM | TGI [9]: > 100 µM

O=S1Nc2c(Cl)cc(Cl)c3c(Cl)cc(Cl)c(c23)N1
TGI [10]: > 100 µM | TGI [1]: > 100 µM | TGI [2]: > 100 µM | TGI [3]: > 100 µM | TGI [5]: > 100 µM | TGI [6]: 66 µM | TGI [7]: > 100 µM | TGI [8]: 50.9 µM | TGI [9]: > 100 µM

CCc1cccc(CC)c1NC(=O)C1=C(C)NC(C)=C(C(=O)Nc2c(CC)cccc2CC)C1c1ccc([N+](=O)[O-])cc1
TGI [10]: 37.4 µM | TGI [1]: 39.9 µM | TGI [2]: 46.4 µM | TGI [4]: > 100 µM | TGI [5]: 33 µM | TGI [7]: 78.3 µM | TGI [8]: 77.6 µM | TGI [9]: 48.7 µM

O=C(OCc1ncc(-c2ccc(C(F)(F)F)cc2)c(NC2CCCCCC2)n1)c1c(F)c(F)c(F)c(F)c1F
GI50 [10]: 3.07 µM | TGI [10]: 9.95 µM | GI50 [1]: 11.7 µM | TGI [1]: 24.7 µM | GI50 [2]: 8.46 µM | TGI [2]: 25.9 µM | GI50 [3]: 1.94 µM | TGI [3]: 4.78 µM | GI50 [4]: 18.8 µM | TGI [4]: 34.3 µM | GI50 [5]: 16 µM | TGI [5]: 30.3 µM | GI50 [6]: 14.2 µM | TGI [6]: 29.2 µM | GI50 [8]: 5.34 µM | TGI [8]: 21.3 µM | GI50 [9]: 5.53 µM | TGI [9]: 22 µM

OCC(O)c1nc2ccc3[nH]ncc3c2c2c1CCCC2 (centres undefined)
GI50 [1]: 1.22 µM | TGI [1]: 3.76 µM | GI50 [2]: 1.24 µM | TGI [2]: > 50 µM | GI50 [3]: 1.5 µM | TGI [3]: > 50 µM | GI50 [4]: 1.53 µM | TGI [4]: > 50 µM | GI50 [5]: 1.02 µM | TGI [5]: 2.99 µM | GI50 [6]: 0.96 µM | TGI [6]: 2.73 µM | GI50 [7]: 1.3 µM | TGI [7]: 4.67 µM | GI50 [8]: 0.612 µM | TGI [8]: 1.45 µM | GI50 [9]: 1.24 µM | TGI [9]: 3.14 µM

COc1cccc(/C=C/C(=O)c2ccc(Cl)cc2Cl)c1
GI50 [10]: 1.1 µM | TGI [10]: 3.86 µM | GI50 [1]: 12.9 µM | TGI [1]: 30.2 µM | GI50 [2]: 4.94 µM | TGI [2]: 19.1 µM | GI50 [3]: 13.9 µM | TGI [3]: > 50 µM | GI50 [5]: 9.38 µM | TGI [5]: 17.6 µM | GI50 [6]: 8.06 µM | TGI [6]: 15.5 µM | GI50 [7]: 13.5 µM | TGI [7]: 25.8 µM | GI50 [8]: 9.44 µM | TGI [8]: 20.5 µM | GI50 [9]: 8.9 µM | TGI [9]: > 50 µM

CCOC(=N)CC(=O)c1ccccc1
TGI [1]: > 100 µM | TGI [2]: > 100 µM | TGI [4]: > 100 µM | TGI [5]: > 100 µM | TGI [6]: > 100 µM | TGI [7]: > 100 µM | TGI [8]: > 100 µM | TGI [9]: > 100 µM

SCCSCCCSCCS
TGI [1]: > 100 µM | TGI [2]: > 100 µM | TGI [3]: > 100 µM | TGI [4]: > 100 µM | TGI [5]: > 100 µM | TGI [6]: > 100 µM | TGI [7]: > 100 µM | TGI [9]: 45.6 µM
